The values that follow come from patent US10106544B2, “1,2-dihydro-3H-pyrrolo[1,2-C]imidazol-3-one derivatives and their use as antibacterial agents” (priority 2014, dated 2018).

Values after ≈ are worked out from the molar mass of the structure shown. Where a name gives a salt, the structure may show the parent alone. Read-outs that look alike come from different tables or passages of the source.

Test in all cases: Bacterial growth minimal inhibitory concentration (microdilution, cation-adjusted Mueller-Hinton Broth)
Holding throughout (format): cell-based

The test system of one assay is E. coli ATCC25922. The note with it: for MIC: Escherichia coli. As to the method:
(§1) Minimal Inhibitory Concentrations (MICs; mg/L) were determined in cation-adjusted Mueller-Hinton Broth by a microdilution method following the description given in “Methods for Dilution Antimicrobial Susceptibility Tests for Bacteria that Grow Aerobically”, Approved standard, 7th ed., a Clinical and Laboratory Standards Institute (CLSI) Document M7-A7, Wayne, Pa., USA (2006).
(§2) All Example compounds were tested against several Gram-positive and Gram-negative bacteria. […] K. pneumoniae A-651 is a multiply-resistant strain (in particular quinolone-resistant), while E. coli ATCC25922 and P. aeruginosa ATCC27853 are quinolone-sensitive strains.

Another assay concerns K. pneumoniae A-651. The note with it: for MIC: Klebsiella pneumoniae. As to the method: as §1, §2
In another assay the test system is P. aeruginosa ATCC27853. The note with it: for MIC: Pseudomonas aeruginosa. Here is the method: as §1, §2
[1] abbreviates: ATCC25922, quinolone-sensitive strain, read-out: MIC for E. coli ATCC25922.
The mark [2] stands for this setting: A651, multiply-resistant strain (in particular quinolone-resistant), read-out: MIC for K. Pneumoniae A-651.
[3] abbreviates: ATCC27853, quinolone-sensitive strain, read-out: MIC for P. aeruginosa ATCC27853.
[4] abbreviates: ATCC25922, read-out: MIC for E. coli ATCC25922.
Setting [5] is: A651, read-out: MIC for K. Pneumoniae A-651.
The mark [6] stands for this setting: ATCC27853, read-out: MIC for P. aeruginosa ATCC27853.

One may read the MIC as the lowest concentration that inhibits growth of the organism. Take `C[C@@](CCN1Cc2cc(C#CC#C[C@@H]3C[C@H]3CO)cn2C1=O)(C(=O)NO)S(C)(=O)=O` [Example 27, (R)-N-hydroxy-4-(6-(((1R,2R)-2-(hydroxymethyl)cyclopropyl)buta-1,3-diyn-1-yl)-3-oxo-1H-pyrrolo[1,2-c]imidazol-2(3H)-yl)-2-methyl-2-(methylsulfonyl)butanamide]: the MIC in the assay with E. coli ATCC25922 (setting [1]) is not above 0.063 µg/mL; in the assay on K. pneumoniae A-651 (setting [2]), 0.25 µg/mL (≈ 0.577 µM); in the assay with P. aeruginosa ATCC27853 (setting [3]), 0.5 µg/mL (≈ 1.15 µM).
For `C[C@@](CCN1Cc2cc(-c3ccc(Cl)cc3F)cn2C1=O)(C(=O)NO)S(C)(=O)=O` [Example 48, (R)-4-(6-(4-chloro-2-fluorophenyl)-3-oxo-1H-pyrrolo[1,2-c]imidazol-2(3H)-yl)-N-hydroxy-2-methyl-2-(methylsulfonyl)butanamide], the MIC is not above 0.063 µg/mL with E. coli ATCC25922 (setting [1]), 0.25 µg/mL (≈ 0.563 µM) with K. pneumoniae A-651 (setting [2]) and 1 µg/mL (≈ 2.25 µM) with P. aeruginosa ATCC27853 (setting [3]).
Turning to `C[C@@](CCN1Cc2cc(-c3ccc(F)c(F)c3F)cn2C1=O)(C(=O)NO)S(C)(=O)=O` [Example 54, (R)-N-hydroxy-2-methyl-2-(methylsulfonyl)-4-(3-oxo-6-(2,3,4-trifluorophenyl)-1H-pyrrolo[1,2-c]imidazol-2(3H)-yl)butanamide], the MIC in the assay with E. coli ATCC25922 (setting [1]) was found to be 0.125 µg/mL (≈ 0.281 µM); with K. pneumoniae A-651 (setting [2]), 1 µg/mL (≈ 2.25 µM); in the assay on P. aeruginosa ATCC27853 (setting [3]), 1 µg/mL (≈ 2.25 µM).
As for `COc1cccc(-c2cc3n(c2)C(=O)N(CC[C@](C)(C(=O)NO)S(C)(=O)=O)C3)c1F` [Example 28, (R)-4-(6-(2-fluoro-3-methoxyphenyl)-3-oxo-1H-pyrrolo[1,2-c]imidazol-2(3H)-yl)-N-hydroxy-2-methyl-2-(methylsulfonyl)butanamide], the MIC is not above 0.063 µg/mL with E. coli ATCC25922 (setting [1]), 0.25 µg/mL (≈ 0.569 µM) in the assay on K. pneumoniae A-651 (setting [2]) and 1 µg/mL (≈ 2.28 µM) with P. aeruginosa ATCC27853 (setting [3]).
With `C[C@@](CCN1Cc2cc(C#CC#CC3(N)COC3)cn2C1=O)(C(=O)NO)S(C)(=O)=O` [Example 39, (R)-4-(6-((3-aminooxetan-3-yl)buta-1,3-diyn-1-yl)-3-oxo-1H-pyrrolo[1,2-c]imidazol-2(3H)-yl)-N-hydroxy-2-methyl-2-(methylsulfonyl)butanamide hydrochloride], the MIC is 2 µg/mL in the assay with E. coli ATCC25922 (setting [4]), 4 µg/mL in the assay on K. pneumoniae A-651 (setting [5]) and 4 µg/mL with P. aeruginosa ATCC27853 (setting [6]).
For the compound `CN1CCN(Cc2ccc(C#Cc3cc4n(c3)C(=O)N(CCC(C)(C(=O)NO)S(C)(=O)=O)C4)cc2)CC1` (racemic) [RE6, (RS)—N-hydroxy-2-methyl-4-(6-((4-((4-methylpiperazin-1-yl)methyl)phenyl)ethynyl)-3-oxo-1H-pyrrolo[1,2-c]imidazol-2(3H)-yl)-2-(methylsulfonyl)butanamide], the minimal inhibitory concentration (MIC) with E. coli ATCC25922 (setting [1]) worked out at 2 µg/mL (≈ 3.79 µM); in the assay with K. pneumoniae A-651 (setting [2]), 8 µg/mL (≈ 15.2 µM); with P. aeruginosa ATCC27853 (setting [3]) it was 2 µg/mL (≈ 3.79 µM).
With `C[C@@](CCN1Cc2cc(C#CC#CC[C@@H]3C[C@@H]3CO)cn2C1=O)(C(=O)NO)S(C)(=O)=O` [Example 12, (R)-N-hydroxy-4-(6-(5-((1S,2S)-2-(hydroxymethyl)cyclopropyl)penta-1,3-diyn-1-yl)-3-oxo-1H-pyrrolo[1,2-c]imidazol-2(3H)-yl)-2-methyl-2-(methylsulfonyl)butanamide], the MIC with E. coli ATCC25922 (setting [1]), with K. pneumoniae A-651 (setting [2]) and in the assay on P. aeruginosa ATCC27853 (setting [3]) was 0.25 µg/mL (≈ 0.559 µM) each time.
Regarding `C[C@@](CCN1Cc2cc(C#Cc3ccc(C4(N)CC4)cc3)cn2C1=O)(C(=O)NO)S(C)(=O)=O` [Example 72, (R)-4-(6-((4-(1-aminocyclopropyl)phenyl)ethynyl)-3-oxo-1H-pyrrolo[1,2-c]imidazol-2(3H)-yl)-N-hydroxy-2-methyl-2-(methylsulfonyl)butanamide], the results for the MIC in the assay on E. coli ATCC25922 (setting [4]), in the assay on K. pneumoniae A-651 (setting [5]) and with P. aeruginosa ATCC27853 (setting [6]) were 0.125 µg/mL (≈ 0.266 µM), 0.25 µg/mL (≈ 0.531 µM) and 0.5 µg/mL (≈ 1.06 µM), respectively.
In the case of `C[C@@](CCN1Cc2cc(-c3ccc(OCCO)cc3F)cn2C1=O)(C(=O)NO)S(C)(=O)=O` [Example 41, (R)-4-(6-(2-fluoro-4-(2-hydroxyethoxy)phenyl)-3-oxo-1H-pyrrolo[1,2-c]imidazol-2(3H)-yl)-N-hydroxy-2-methyl-2-(methylsulfonyl)butanamide], the minimal inhibitory concentration (MIC) with E. coli ATCC25922 (setting [1]) amounted to 1 µg/mL (≈ 2.13 µM); in the assay on K. pneumoniae A-651 (setting [2]) it was 2 µg/mL (≈ 4.26 µM); with P. aeruginosa ATCC27853 (setting [3]), 4 µg/mL (≈ 8.52 µM).
In the same order, the values of `C[C@@](CCN1Cc2cc(C#CC#CC34CC(CO)(C3)C4)cn2C1=O)(C(=O)NO)S(C)(=O)=O` [Example 30, (R)-N-hydroxy-4-(6-(4-(3-(hydroxymethyl)bicyclo[1.1.1]pentan-1-yl)buta-1,3-diyn-1-yl)-3-oxo-1H-pyrrolo[1,2-c]imidazol-2(3H)-yl)-2-methyl-2-(methylsulfonyl)butanamide] are 0.125 µg/mL (≈ 0.272 µM), 0.25 µg/mL (≈ 0.544 µM) and 0.5 µg/mL (≈ 1.09 µM).
In the case of `C[C@H](O)c1ccc(C#Cc2cc3n(c2)C(=O)N(CC[C@](C)(C(=O)NO)S(C)(=O)=O)C3)cc1` [Example 14], in the assay with E. coli ATCC25922 (quinolone-sensitive strain), the “MIC for E. coli ATCC25922” value was 0.125 µg/mL. For the same compound, the “MIC for K. Pneumoniae A-651” value against K. pneumoniae A-651 (multiply-resistant strain (in particular quinolone-resistant)) turned out to be 0.25 µg/mL. Besides, in the assay with P. aeruginosa ATCC27853 (quinolone-sensitive strain), the “MIC for P. aeruginosa ATCC27853” value was 1 µg/mL.
Take `C[C@@](CCN1Cc2cc(C#Cc3ccc(OCCO)cc3)cn2C1=O)(C(=O)NO)S(C)(=O)=O` [Example 22, (R)-N-hydroxy-4-(6-((4-(2-hydroxyethoxy)phenyl)ethynyl)-3-oxo-1H-pyrrolo[1,2-c]imidazol-2(3H)-yl)-2-methyl-2-(methylsulfonyl)butanamide]: the minimal inhibitory concentration (MIC) in the assay with E. coli ATCC25922 (setting [1]) stood at 0.125 µg/mL (≈ 0.263 µM); in the assay on K. pneumoniae A-651 (setting [2]), 0.5 µg/mL (≈ 1.05 µM); in the assay on P. aeruginosa ATCC27853 (setting [3]) it was 1 µg/mL (≈ 2.1 µM).
Taken in the same sequence, the figures for `C[C@@](CCN1Cc2cc(C#Cc3ccc(N4CCN(CCO)C4=O)cc3)cn2C1=O)(C(=O)NO)S(C)(=O)=O` [Example 20, (R)-N-hydroxy-4-(6-((4-(3-(2-hydroxyethyl)-2-oxoimidazolidin-1-yl)phenyl)ethynyl)-3-oxo-1H-pyrrolo[1,2-c]imidazol-2(3H)-yl)-2-methyl-2-(methylsulfonyl)butanamide] were 1 µg/mL (≈ 1.84 µM), 4 µg/mL (≈ 7.36 µM) and 4 µg/mL (≈ 7.36 µM).
In the same order, the values of `C[C@@](CCN1Cc2cc(C#CC#CC3CN(C(=O)CO)C3)cn2C1=O)(C(=O)NO)S(C)(=O)=O` [Example 62, (R)-N-hydroxy-4-(6-((1-(2-hydroxyacetyl)azetidin-3-yl)buta-1,3-diyn-1-yl)-3-oxo-1H-pyrrolo[1,2-c]imidazol-2(3H)-yl)-2-methyl-2-(methylsulfonyl)butanamide] are 1 µg/mL (≈ 2.1 µM), 4 µg/mL (≈ 8.39 µM) and 1 µg/mL (≈ 2.1 µM).
`C[C@@](CCN1Cc2cc(C#CC#C[C@@H]3CC[C@@H](N)CO3)cn2C1=O)(C(=O)NO)S(C)(=O)=O` [Example 65, (R)-4-(6-(((2S,5R)-5-aminotetrahydro-2H-pyran-2-yl)buta-1,3-diyn-1-yl)-3-oxo-1H-pyrrolo[1,2-c]imidazol-2(3H)-yl)-N-hydroxy-2-methyl-2-(methylsulfonyl)butanamide]: the MIC with E. coli ATCC25922 (setting [1]) stood at 2 µg/mL (≈ 4.32 µM); with K. pneumoniae A-651 (setting [2]), 8 µg/mL (≈ 17.3 µM); in the assay with P. aeruginosa ATCC27853 (setting [3]), 1 µg/mL (≈ 2.16 µM).
Turning to `C[C@]1(CO)C[C@@H]1C#CC#Cc1cc2n(c1)C(=O)N(CC[C@](C)(C(=O)NO)S(C)(=O)=O)C2` [Example 61, (R)-N-hydroxy-4-(6-(((1R,2S)-2-(hydroxymethyl)-2-methylcyclopropyl)buta-1,3-diyn-1-yl)-3-oxo-1H-pyrrolo[1,2-c]imidazol-2(3H)-yl)-2-methyl-2-(methylsulfonyl)butanamide], the minimal inhibitory concentration (MIC) in the assay on E. coli ATCC25922 (setting [1]), with K. pneumoniae A-651 (setting [2]) and in the assay on P. aeruginosa ATCC27853 (setting [3]) was 0.25 µg/mL (≈ 0.559 µM) in each case.
